Values of other authors as cited in patent US20120015899A1 (priority 2008, published 2012).

Cl.Nc1ccn([C@@H]2O[C@H](CO)[C@@H](O)C2(F)F)c(=O)n1 [Gemcitabine, Cytidine, 2′-deoxy-2′,2′-difluoro-, monohydrochloride]
pKa: 3.58
